Data from ChEMBL document CHEMBL1152310, “A Dimeric sesquiterpenoid from a Malaysian Meiogyne as a new inhibitor of Bcl-xL/BakBH3 domain peptide interaction” (J Nat Prod, 2009).

System: KB
Assay: Cytotoxicity against human KB cells
Format: functional, cell-based

With `CC(C)=CCC[C@@H](C)[C@H]1C=C[C@@]2(C(=O)O)[C@H](CC(C)=C[C@@H]2/C=C(\C)C2CCC(C(=O)O)CC2)C1` (stereo partly specified) [MEIOGYNIN A] the IC50 was 4 µM.
